Results: paper PMC7782793, “Hydroxamic acid-modified peptide microarrays for profiling isozyme-selective interactions and inhibition of histone deacetylases” (Nature Communications, 2021)
Non-standard residues stand in square brackets, D forms with d. Residues, ends and D or L forms follow the SMILES beside them. *: point of attachment. Asu = N[C@@H](CCCCCC(=O)O)C(=O)O; NHOH = ON*

Legend:
HDAC4 = biological target: T1, HDAC4 (Homo sapiens, UniProt P56524); test: HDAC inhibition assay (fluorogenic, Ac-Leu-Gly-Lys(Tfa)-AMC); type: biochemical; settings: 2 internal replicates; for remaining activity at 5 µM / remaining activity at 50 µM: read-out: residual enzymatic activity relative to control wells
T1 construct: purchased BPS Bioscience 50004

HDACs 1‒3 and 8 = test: HDAC inhibition assays, statements across several class I isozymes; type: biochemical, human; settings: for selectivity against HDACs 1‒3 versus HDAC8: resynthesized peptides, from Ki

T1 sequence (P56524 627-1084): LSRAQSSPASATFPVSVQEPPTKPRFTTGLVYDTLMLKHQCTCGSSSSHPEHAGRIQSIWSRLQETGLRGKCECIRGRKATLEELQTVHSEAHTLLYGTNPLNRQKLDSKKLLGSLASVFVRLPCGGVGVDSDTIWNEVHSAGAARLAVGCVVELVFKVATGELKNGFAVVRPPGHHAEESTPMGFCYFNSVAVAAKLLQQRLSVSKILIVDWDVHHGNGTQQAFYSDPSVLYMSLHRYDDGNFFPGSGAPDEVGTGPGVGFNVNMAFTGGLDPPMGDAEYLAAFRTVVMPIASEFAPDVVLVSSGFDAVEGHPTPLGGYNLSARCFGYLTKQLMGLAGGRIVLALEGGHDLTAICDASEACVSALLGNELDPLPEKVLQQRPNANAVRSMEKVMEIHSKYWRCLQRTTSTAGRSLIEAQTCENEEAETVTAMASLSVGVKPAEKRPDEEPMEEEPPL

Structure (SMILES)	residual enzymatic activity relative to control wells (HDAC4; inhibitor 5 µM)	remaining activity at 5 µM (HDAC4; inhibitor 5 µM) [%]	residual enzymatic activity relative to control wells (HDAC4; inhibitor 50 µM)	remaining activity at 50 µM (HDAC4; inhibitor 50 µM) [%]	selectivity against HDACs 1‒3 versus HDAC8 (HDACs 1‒3 and 8)	inhibitory potency in words (HDACs 1‒3 and 8; across the HDACs named in the sentence)
CC(=O)N[C@@H](CC(C)C)C(=O)NCC(=O)N[C@@H](CCCCN)C(=O)NCC(=O)NCC(=O)N[C@@H](C)C(=O)N[C@@H](CCCCCC(=O)NO)C(=O)N[C@@H](CCCNC(=N)N)C(=O)N[C@@H](Cc1c[nH]cn1)C(=O)N[C@@H](CCCNC(=N)N)C(=O)N[C@@H](CCCCN)C(=O)N[C@H](C(=O)N[C@@H](CC(C)C)C(=O)N[C@@H](CCCNC(=N)N)C(=O)N[C@@H](CC(=O)O)C(=O)N[C@@H](CC(N)=O)C(=O)N[C@@H](Cc1c[nH]c2ccccc12)C(N)=O)C(C)C [16a] (Ac-LGKGGA[Asu](NHOH)RHRKVLRDNW-NH2)	96.58	93.6	68.39	67.1	over 100 fold	–
CC(=O)N[C@@H](C)C(=O)N1CCC[C@H]1C(=O)N[C@@H](C)C(=O)N1CCC[C@H]1C(=O)N[C@@H](CCCCN)C(=O)N[C@@H](CCCCCC(=O)NO)C(=O)NCC(=O)N[C@@H](CO)C(=O)N[C@@H](CCCCN)C(=O)N[C@@H](CCCCN)C(=O)N[C@@H](C)C(=O)N[C@H](C(=O)N[C@H](C(=O)N[C@@H](CCCCN)C(=O)N[C@@H](C)C(=O)N[C@@H](CCC(N)=O)C(=O)N[C@@H](Cc1c[nH]c2ccccc12)C(N)=O)[C@@H](C)O)C(C)C [10a] (Ac-APAPK[Asu](NHOH)GSKKAVTKAQW-NH2)	95.93	100	77.53	80.4	–	–
CC(=O)NCC(=O)NCC(=O)N[C@@H](CCCCCC(=O)NO)C(=O)N[C@@H](C)C(=O)N[C@@H](CCCNC(=N)N)C(=O)N[C@@H](C)C(=O)N[C@@H](CCCCN)C(=O)N[C@@H](C)C(=O)N[C@@H](CCCCN)C(=O)N[C@H](C(=O)N[C@@H](CCCNC(=N)N)C(=O)N[C@@H](CO)C(=O)N[C@@H](CO)C(=O)N[C@@H](CCCNC(=N)N)C(=O)N[C@@H](C)C(=O)NCC(=O)N[C@@H](Cc1c[nH]c2ccccc12)C(N)=O)[C@@H](C)O [9a] (Ac-GG[Asu](NHOH)ARAKAKTRSSRAGW-NH2)	94.96	97.8	54.4	57.5	over 100 fold	–
CC(=O)N1CCC[C@H]1C(=O)N[C@@H](CCCNC(=N)N)C(=O)N[C@@H](CCCCN)C(=O)N[C@@H](CCC(N)=O)C(=O)N[C@@H](CC(C)C)C(=O)N[C@@H](C)C(=O)N[C@H](C(=O)N[C@@H](CCCCN)C(=O)N[C@@H](C)C(=O)N[C@@H](C)C(=O)N[C@@H](CCCNC(=N)N)C(=O)N[C@@H](CCCCCC(=O)NO)C(=O)N[C@@H](CO)C(=O)N[C@@H](C)C(=O)N1CCC[C@H]1C(=O)N[C@@H](C)C(=O)N[C@@H](Cc1c[nH]c2ccccc12)C(N)=O)[C@@H](C)O [14a] (Ac-PRKQLATKAAR[Asu](NHOH)SAPAW-NH2)	82.79	91.8	33.99	41.7	–	inhibited all four isozymes with similar potency
